Values of other authors, collected in patent US20190070181A1, “FORMULATION OF TICAGRELOR OR PHARMACEUTICALLY ACCEPTABLE SALT THEREOF” (Jiangsu Hengrui Medicine Co., Ltd., priority 2017, published 2019).

Experiments:
[1] = not given; remark: listed apart in the source

SMILES | average t1/2 (in vivo) | dose up to which the pharmacokinetics is linear (in vivo) | median tmax (oral administration) | average recovery of the radiation in feces (radiolabeled ticagrelor, feces) | average recovery of the radiation (radiolabeled ticagrelor, total) | average recovery of the radiation in urine (radiolabeled ticagrelor, urine) | solubility in water [1] | time the IPA effect can be maintained (platelet aggregation; 180 mg loading dose) | IPA maximum (platelet aggregation; 2-4 hours after 180 mg loading dose) | mean inhibition of platelet aggregation (IPA) (platelet aggregation; 0.5 hour after 180 mg loading dose)
CCCSc1nc(N[C@@H]2C[C@H]2c2ccc(F)c(F)c2)c2nnn([C@@H]3C[C@H](O)[C@@H](O)[C@H]3O)c2n1 [AR-C124910XX] | about 9 hours |  |  |  |  |  |  |  |  | 
CCCSc1nc(N[C@@H]2C[C@H]2c2ccc(F)c(F)c2)c2nnn([C@@H]3C[C@H](OCCO)[C@@H](O)[C@H]3O)c2n1 [ticagrelor, (1S,2S,3R,5S)-3-[7-{[(1R,2S)-2-(3,4-difluorophenyl)cyclopropyl]amino}-5-(propylthio)-3H-[1,2,3]-triazolo[4,5-d]pyrimidin-3-yl]-5-(2-hydroxyethoxy)cyclopentane-1,2-diol] | about 7 hours | up to 1260 mg | about 1.5 hours | 58% | about 84% | 26% | almost insoluble in water | 2 to 8 h | 89% | 41%
